Results: PubChem BioAssay AID540268 (Broad Institute, 2011)
Calls of active or inactive are those of the source. No rule for the calls is given here.

Assay: growth inhibition of yeast carrying parasite Hsp90, dose response, anti-malarial Hsp90 inhibitor project, ATP luminescence, 48 h, cherry-picked samples (AID 540268);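 as to activity change, negative = inhibition: 0% = neutral control wells and -100% = positive control wells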
Details: yeast expressing the parasite Hsp90, ATP luminescence; for activity change, negative = inhibition: at 26 µM (top of the series)

| SMILES | AC50 [µM] | activity change, negative = inhibition |
| --- | --- | --- |
| O=c1cc(-c2ccc(C3CCCCC3)cc2)[nH][nH]1 | 7.7 |  |
| O=C1C=CC(=O)N1c1ccc2c(c1)Cc1cc(F)ccc1-2 | < 0.195 |  |
| O=C(Nc1nc(-c2ccccn2)cs1)c1ccc(Br)s1 | 2.18 |  |
| O=C1C2C3C=CC(CNS(=O)(=O)c4ccccc4)(O3)C2C(=O)N1c1ccc(Cl)cc1 (configuration not stated) | 3.73 |  |
| Oc1c(Br)cc(Br)cc1C=NCc1ccc(F)cc1 | 8.5 |  |
| Cn1c2ccccc2c2ccc3c(c21)C(=O)C=CC3=O | 8.02 |  |
| CN1CCN(C(c2ccc(Cl)cc2)c2cc(Cl)c3cccnc3c2O)CC1 (configuration not stated) | 0.615 |  |
| CCc1ccccc1NC(=O)c1cccc(Oc2ccc([N+](=O)[O-])cc2Cl)c1 | 4.12 |  |
| O=C(CN1CCN(c2ncc(C(F)(F)F)cc2Cl)CC1)NCCNc1ncc(C(F)(F)F)cc1Cl | 3.49 |  |
| Cc1ccc(OCc2n[nH]c(=S)n2C2CCCCC2)cc1 | 23.6 |  |
| N#C/C(=C\c1ccc([N+](=O)[O-])o1)C(=O)Nc1ccc(F)cc1 | 0.33 |  |
| Cc1ccc(C(=O)ONC(=O)c2ccc(Cl)cc2)cc1[N+](=O)[O-] | 0.387 |  |
| CC(C)Cn1c(=O)c(C(=O)Nc2ccncc2)c(O)c2ccccc21 | 8.25 |  |
| CCCCCC(=O)N(O)C1CC(=O)N(c2ccccc2)C1=O (configuration not stated) | 1.13 |  |
| COC(=O)[C@@H]1[C@@H](C#N)C2(c3ccccc3-c3ccccc32)N(c2ccc(Cl)cc2)N1C#N | 2.81 |  |
| COC(=O)C1=C(C(=O)OC)C2OC1c1cc3ccccc3cc12 | 1.92 |  |
| Cc1ccc(N2C(=O)C3C4C=CC(CNC(=S)Nc5ccc(F)cc5)(O4)C3C2=O)cc1 (configuration not stated) |  | 9.97% (inactive) |
| CCOC(=O)C(=Cc1ccc(-n2cncn2)cc1)C(=O)OCC | 6.51 |  |
| N/C(Cc1ccc(Cl)c(Cl)c1)=N\OC(=O)c1cccs1 | 2.22 |  |
| O=C(OCC(=O)C12CC3CC(CC(C3)C1)C2)c1ccc(O)cc1O | 15.6 |  |
| CCN(CC)C(=S)SSC(=S)N(CC)CC | 4.55 |  |
| CCC(C)n1ncn(-c2ccc(N3CCN(c4ccc(OCC5COC(Cn6cncn6)(c6ccc(Cl)cc6Cl)O5)cc4)CC3)cc2)c1=O (configuration not stated) | < 0.195 |  |
| Cc1cccc(COC(=O)CCCNC(=O)c2ccc(Cl)cc2)c1 | 8.69 |  |

| SMILES | AC50 [µM] | activity change, negative = inhibition |
| --- | --- | --- |
| CC1=CC2C(C(O)CC3(C)C2CC(C)C32OCOC23COCO3)C2(C)C/C(=C\O)C(=O)C=C12 (configuration not stated) | 3.13 |  |
| O=[N+]([O-])c1ccc(Sc2nc3ccccc3o2)c([N+](=O)[O-])c1 | 3.56 |  |
| O=C(Nc1ccc(Cl)cc1Cl)c1cccc(N2C(=O)C=CC2=O)c1 | < 0.195 |  |
| CCCCCCCCCCOC(=O)Cn1c(COc2cccc(C)c2)[n+](C)c2ccccc21 | 15.5 |  |
| O=C1C=CC(=Nc2ccc(F)cc2)O1 | 1.24 |  |
| O=[N+]([O-])c1cc2no[n+]([O-])c2cc1N1CCCCC1 | 0.877 |  |
| Oc1ccc(N=Nc2nc(-c3ccccc3)c(-c3ccccc3)[nH]2)cc1 | 6.13 |  |
| CC(C)N(CCC(=O)c1ccc2ccccc2c1)Cc1ccccc1 | 17.6 |  |
| Cc1cc(NC(c2ccc(Cl)cc2)c2ccc3cccnc3c2O)no1 (configuration not stated) | 4.2 |  |
| O=C(C#Cc1ccccc1)c1cccc([N+](=O)[O-])c1 | 0.291 |  |
| COc1ccc(OC)c(N2C(=O)NC(=O)/C(=C/c3ccc([N+](=O)[O-])s3)C2=O)c1 | 4.26 |  |
| Cc1ccc(NC(=S)NCC23C=CC(O2)C2C(=O)N(c4ccc(C)cc4)C(=O)C23)cc1 (configuration not stated) | 8.61 |  |
| Cc1ccc2c(c1)C(=O)C(=O)N2Cc1ccc(C(F)(F)F)cc1 | 7.78 |  |
| CC(=NNc1nc2ccccc2s1)c1ncccn1 | 2.36 |  |
| O=C1NC(=S)S/C1=C\c1cc2ccccc2nc1N1CCCCC1 | 8.4 |  |
| O=C(NNC1=C(C(=O)C(F)(F)F)CCC1)c1ccc(Cl)cc1 | 1.34 |  |
| Oc1c(Br)cc(Br)c(/C=N/n2c(-c3ccccc3)n[nH]c2=S)c1Br | 10.4 |  |
| COc1ccc(CCN2C(=O)C=CC2=O)cc1OC | 1.41 |  |
| Nc1ncnc2c1ncn2C1OC(COP(=O)(O)O)C(O)C1O (configuration not stated) | 2.27 |  |
| CC(C)CCOc1cccc(OCC(=O)Nc2ccncc2)c1 | 4.84 |  |
| Cc1ccc(O)c(N=Nc2nccs2)c1 | 1.2 |  |
| Cc1cc(C)c2c(N=NN(C)C)[nH]nc2n1 | 3.92 |  |
| CN(C)/C=C/C(=O)c1ccc2noc(-c3ccccc3)c2c1 | 8.37 |  |

| SMILES | AC50 [µM] | activity change, negative = inhibition |
| --- | --- | --- |
| CCCCCCCCCCC[N+](C)(C)CC/C=C1/c2ccccc2Sc2ccc(Cl)cc21 | 7.99 |  |
| Cc1onc(-c2ccccc2)c1C(=O)NC(=S)NNC(=O)c1ccccc1O | 2.24 |  |
| O=[N+]([O-])c1ccc(S(=O)(=O)c2cccc(C(F)(F)F)c2)nc1 | 2.52 |  |
| CN(C)/C=C/C(=O)c1ccc2noc(-c3cccc(F)c3)c2c1 | 13.5 |  |
| Cc1cccc(/C=C/C(=O)c2ccc([N+](=O)[O-])o2)c1 | 1.56 |  |
| O=C(Oc1c(Cl)cc(Cl)c2cccnc12)c1cccc([N+](=O)[O-])c1 | 16 |  |
| Cc1ccc(N/N=C(\C#N)C(N)=S)c(C)c1 | 1.32 |  |
| Oc1c(CN2CCc3ccccc3C2)cc(Cl)c2cccnc12 | 7.82 |  |
| Cc1ccc(-n2nnnc2C(Cl)c2nnnn2-c2ccc(C)cc2)cc1 | 0.903 |  |
| O=[N+]([O-])/C=C\c1ccc(N2CCCC2)c(F)c1 | 6.27 |  |
| Cc1ccc(S(=O)(=O)NCC23C=CC(O2)C2C(=O)N(c4ccccc4)C(=O)C23)cc1 (configuration not stated) | 4.8 |  |
| O=C1C=CC(=O)N1c1ccc(N2CCCCC2)cc1 | 0.312 |  |
| CSc1ccccc1OCc1cc(C(=O)N2CCN(C)C(c3ccccc3)C2)no1 (configuration not stated) | 2.25 |  |
| CCCOC(=O)c1ccc(Oc2cn[nH]c2-c2ccc(OC)cc2O)cc1 | 6 |  |
| CC(=NNC(=S)Nc1ccccc1Cl)c1ccccn1 | 3.91 |  |
| Cc1cc(C)c(S(=O)(=O)N2CCC(C(=O)NCc3ccc(Cl)cc3Cl)CC2)c(C)c1 | 0.835 |  |
| C(C#CCCCCCCCCC[n+]1ccccc1)#CCCCCCCCCC[n+]1ccccc1 | 4.06 |  |
| Cc1ccc(/C=[N+](\[O-])c2ccc(N(C)C)cc2)c2nsnc12 | 8.1 |  |
| c1ccc(-c2ccc(C(c3ccccc3)n3ccnc3)cc2)cc1 (configuration not stated) | 1.07 |  |
| Cc1ccc2nc(/C(C#N)=C\c3ccc([N+](=O)[O-])o3)[nH]c2c1 | < 0.195 |  |
| CCOc1cc(/C=C\[N+](=O)[O-])ccc1OCC(=O)Nc1ccccc1C | 2.61 |  |
| Oc1c(Cl)cccc1Cc1cc(Cl)cc(Cl)c1O | 0.618 |  |
| O=C(/C=C/c1ccnc2ccccc12)c1cccs1 | 4.64 |  |

| SMILES | AC50 [µM] | activity change, negative = inhibition |
| --- | --- | --- |
| C/C(CC(=O)Nc1cc(C)ccn1)=N\NC(=O)c1cccc(C)c1O |  | -51.7% (inactive) |
| COc1cc(/C=C/[N+](=O)[O-])ccc1OC(=O)c1cc2ccccc2oc1=O | 1.3 |  |
| COc1ccc(OC)c(NC(=O)Nc2ccc(O)c3ccccc23)c1 | < 0.195 |  |
| CCN1/C(=C\c2ccc3ccccc3[n+]2CC)Sc2cc(C)ccc21 | 7.9 |  |
| CCCNC(=O)c1nnsc1S(=O)c1ccc(Cl)cc1 (configuration not stated) | 1.53 |  |
| COc1ccc(N2CCN(C(=O)c3ccc(Br)cc3)CC2)c([N+](=O)[O-])c1 | 0.497 |  |
| CCCCCCCCNC(=O)/C(C#N)=C/c1ccccc1[N+](=O)[O-] | 4.69 |  |
| CCN1/C(=C/c2ccc3cc(C)ccc3[n+]2CC)Sc2cc(C)ccc21 | 5.54 |  |
| CCOC(=O)COc1ccc2ccccc2c1/C=C/[N+](=O)[O-] | 4.46 |  |
| CC(=O)NC(c1ccc(C(C)C)cc1)c1ccc2cccnc2c1O (configuration not stated) | 2.24 |  |
| Cc1cc(N2C(=O)C=CC2=O)c([N+](=O)[O-])cc1C | 1.18 |  |
| O=C1c2ccccc2NC(c2ccc(-c3ccc(C(F)(F)F)cc3)o2)N1O (configuration not stated) | 7.62 |  |
| O=C1C=CC(=O)N1CCCCCCCCCCN1C(=O)C=CC1=O | 0.837 |  |
| O=C(N/N=C/c1c(O)ccc2ccccc12)c1cccc(C(F)(F)F)c1 | 2.86 |  |
| CCN(CC)S(=O)(=O)c1cccc(C(=O)NCC(c2ccccc2)N(C)C)c1 (configuration not stated) | 3.92 |  |
| N#Cc1c2ccc([N+](=O)[O-])cc2[n+]([O-])n1-c1ccccc1 | 2.1 |  |
| COc1ccccc1C(=O)NNC(=S)NC(=O)c1cccs1 | 6.92 |  |
| COc1ccc(-c2nnc(SCC(=O)Oc3ccc(C)cc3)o2)cc1 | 2.02 |  |
| CCC1C/C(=C\c2cccnc2)C(=O)/C(=C/c2cccnc2)C1 (configuration not stated) | 9.06 |  |
| c1ccc(C(=NNc2nc3ccccc3s2)c2ccccn2)cc1 | 22.3 |  |
| O=C(c1ccc(Br)cc1)C(CN1CCOCC1)c1ccccc1 (configuration not stated) | 2.91 |  |
| CC(=O)SC(C[N+](=O)[O-])c1cn(C(C)=O)c2ccccc12 (configuration not stated) | 1.57 |  |
| CCOC(=O)c1ccc(N2C(=O)CC(N3CCC(O)(c4ccc(Cl)cc4)CC3)C2=O)cc1 (configuration not stated) | 4.04 |  |

| SMILES | AC50 [µM] | activity change, negative = inhibition |
| --- | --- | --- |
| CC(C)N1CCN(c2ccc(OC[C@H]3CO[C@](Cn4cncn4)(c4ccc(Cl)cc4Cl)O3)cc2)CC1 | 1.5 |  |
| CN1CCN(C(c2ccc(Br)cc2)c2cc(Cl)c3cccnc3c2O)CC1 (configuration not stated) | 0.535 |  |
| COc1cccc(N=Nc2ccc3cccnc3c2O)c1 | 2.39 |  |
| COc1ccc(C)cc1N=Nc1ccc(O)c2ncccc12 | 1.18 |  |
| Cc1cccc(C)c1NC(=O)COC(=O)c1ccc([N+](=O)[O-])o1 |  | -33.6% (inactive) |
| Nc1c(C(=O)Nc2ccc3c(c2)OCCO3)nnn1Cc1ccccc1Cl | 5.48 |  |
| Cc1ccc(C(=O)c2no[n+]([O-])c2C(=O)c2ccc(C)cc2)cc1 | 2.03 |  |
| CC(=O)NC(c1ccccc1)c1cc(Cl)c2cccnc2c1O (configuration not stated) | 7.28 |  |
| Cc1ccc(-c2nc3cccnc3s2)cc1NS(=O)(=O)c1ccc2c(c1)OCCO2 | 4.12 |  |
| CC1CC(C)C(=NNC(N)=O)C(C(O)CC2CCC(=O)NC2=O)C1 (configuration not stated) | < 0.195 |  |
| O=C(NCC1CCCO1)c1cc([N+](=O)[O-])ccc1N1CCC(Cc2ccccc2)CC1 (configuration not stated) | 4.06 |  |
| COCCOC(=O)/C(=C/c1ccc(OC(=O)c2ccccc2)cc1)C(C)=O | 2.68 |  |
| CCc1ccc(S(=O)(=O)N(C(=O)c2ccncc2)c2ccc(OC(=O)c3ccncc3)cc2)cc1 | 1.28 |  |
| CC(C)C(=O)NC(c1cccc([N+](=O)[O-])c1)c1ccc2cccnc2c1O (configuration not stated) | 2.73 |  |
| COc1ccc2c(c1)OC[C@H]1[C@H]2N2C(=O)c3cc(Cl)ccc3NC(=O)[C@@]2(C)[C@H]1c1ccccc1 | 1.12 |  |
| S=C1SCN(Cc2cccnc2)CN1Cc1cccnc1 | 4.07 |  |
| CCCCCCC(=O)N(O)C1CC(=O)N(c2ccc(F)cc2)C1=O (configuration not stated) | 1.32 |  |
| O=C1C=CC(=O)N1N(c1ccccc1)c1ccccc1 | 3.38 |  |
| COc1ccc(C(C[N+](=O)[O-])c2c(C)[nH]n(-c3ccccc3)c2=O)cc1 (configuration not stated) | 7.77 |  |
| CCCCCCCCCCCCCCCC[N+](C)(C)CCl | 4.3 |  |
